The target of data set [1] is T1, RXRα (Homo sapiens, UniProt P19793).
T1 sequence (P19793 1-462): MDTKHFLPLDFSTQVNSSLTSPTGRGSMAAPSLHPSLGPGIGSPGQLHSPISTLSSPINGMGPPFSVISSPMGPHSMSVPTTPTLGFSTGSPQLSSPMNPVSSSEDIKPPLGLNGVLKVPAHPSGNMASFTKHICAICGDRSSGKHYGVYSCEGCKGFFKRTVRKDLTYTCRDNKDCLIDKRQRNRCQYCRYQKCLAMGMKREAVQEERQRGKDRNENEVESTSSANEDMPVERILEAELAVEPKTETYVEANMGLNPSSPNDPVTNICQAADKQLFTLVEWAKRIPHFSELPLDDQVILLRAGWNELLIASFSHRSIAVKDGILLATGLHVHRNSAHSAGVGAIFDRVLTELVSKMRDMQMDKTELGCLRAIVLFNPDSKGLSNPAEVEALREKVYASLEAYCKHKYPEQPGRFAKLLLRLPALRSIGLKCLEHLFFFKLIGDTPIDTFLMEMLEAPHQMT
As to the kind of experiment: RXR binding, RXRα. The note with it: -v- tritiated LGD1069 and tritiated 9-cis retinoic acid. As to the method:
(§1) Non-specific binding was defined as that binding remaining in the presence of 500 nM of the appropriate unlabelled compound. At the end of the incubation period, bound from free ligand were separated. The amount of bound tritiated retinoids was determined by liquid scintillation counting of an aliquot (700 μL) of the supernatant fluid or the hydroxylapatite pellet.
(§2) After correcting for non-specific binding, IC50 values were determined. […] The IC50 value was determined graphically from a log-logit plot of the data. The Kd values were determined by application of the Cheng-Prussof equation to the IC50 values, the labeled ligand concentration and the Kd of the labeled ligand.

The target in data set [2] is T2, RXRβ (Mus musculus, UniProt P28704).
T2 sequence (P28704 1-520): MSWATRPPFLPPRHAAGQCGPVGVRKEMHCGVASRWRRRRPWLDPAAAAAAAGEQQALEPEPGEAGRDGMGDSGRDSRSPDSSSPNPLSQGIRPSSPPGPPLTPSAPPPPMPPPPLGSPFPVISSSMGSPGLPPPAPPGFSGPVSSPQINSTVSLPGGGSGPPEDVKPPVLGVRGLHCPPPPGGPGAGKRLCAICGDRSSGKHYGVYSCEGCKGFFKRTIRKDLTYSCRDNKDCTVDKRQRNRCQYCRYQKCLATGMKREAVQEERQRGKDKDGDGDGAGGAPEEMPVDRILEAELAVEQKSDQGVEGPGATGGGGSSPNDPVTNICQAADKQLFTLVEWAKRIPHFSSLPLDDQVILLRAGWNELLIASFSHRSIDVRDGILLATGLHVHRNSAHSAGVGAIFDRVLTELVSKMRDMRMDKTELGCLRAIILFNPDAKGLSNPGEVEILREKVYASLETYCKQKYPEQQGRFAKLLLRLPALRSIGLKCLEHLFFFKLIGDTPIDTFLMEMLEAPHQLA
The experiment in a line: RXR binding, RXRβ. The note with it: -v- tritiated LGD1069 and tritiated 9-cis retinoic acid. As to the method:
as §1, §2

Data set [3] has as its target T3, RXRγ (Mus musculus, UniProt P28705).
T3 sequence (P28705 1-463): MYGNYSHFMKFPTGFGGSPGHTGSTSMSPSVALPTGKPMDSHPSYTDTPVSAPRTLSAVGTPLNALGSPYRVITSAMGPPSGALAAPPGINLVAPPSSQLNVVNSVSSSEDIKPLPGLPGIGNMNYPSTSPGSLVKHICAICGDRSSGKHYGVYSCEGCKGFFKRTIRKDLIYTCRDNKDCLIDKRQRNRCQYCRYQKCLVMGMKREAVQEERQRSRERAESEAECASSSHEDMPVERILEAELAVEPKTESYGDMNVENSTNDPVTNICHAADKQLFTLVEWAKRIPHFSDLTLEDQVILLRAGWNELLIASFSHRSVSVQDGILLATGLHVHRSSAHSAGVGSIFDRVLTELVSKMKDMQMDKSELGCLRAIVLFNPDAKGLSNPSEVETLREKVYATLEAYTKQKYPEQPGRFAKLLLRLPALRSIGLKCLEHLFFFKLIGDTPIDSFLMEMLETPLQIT
As to the kind of experiment: RXR binding, RXRγ. Conditions: -v- tritiated LGD1069 and tritiated 9-cis retinoic acid. As to the method: as §1, §2

In data set [4] the target is T1, RXRα. As to the kind of experiment: RXR homodimer co-transfection assay, antagonist mode, RXRα. Conditions: read-out: RXRα Potency IC50; antagonist potency in the presence of the known RXR agonist LGD1069; CV-1 cells.
Data set [5] has as its target T2, RXRβ. The experiment in a line: RXR homodimer co-transfection assay, antagonist mode, RXRβ. The note with it: read-out: RXRβ Potency IC50; antagonist potency in the presence of the known RXR agonist LGD1069; CV-1 cells.
In data set [6] the target is T3, RXRγ. As to the kind of experiment: RXR homodimer co-transfection assay, antagonist mode, RXRγ. Conditions: read-out: RXRγ Potency IC50; antagonist potency in the presence of the known RXR agonist LGD1069; CV-1 cells.
A further data set deals with T4, RXRα:PPARα heterodimer (Homo sapiens, UniProt P19793).
T4 sequence (P19793 1-462): T1 sequence (P19793 1-462)
T4 sequence (Q07869 1-468 partner): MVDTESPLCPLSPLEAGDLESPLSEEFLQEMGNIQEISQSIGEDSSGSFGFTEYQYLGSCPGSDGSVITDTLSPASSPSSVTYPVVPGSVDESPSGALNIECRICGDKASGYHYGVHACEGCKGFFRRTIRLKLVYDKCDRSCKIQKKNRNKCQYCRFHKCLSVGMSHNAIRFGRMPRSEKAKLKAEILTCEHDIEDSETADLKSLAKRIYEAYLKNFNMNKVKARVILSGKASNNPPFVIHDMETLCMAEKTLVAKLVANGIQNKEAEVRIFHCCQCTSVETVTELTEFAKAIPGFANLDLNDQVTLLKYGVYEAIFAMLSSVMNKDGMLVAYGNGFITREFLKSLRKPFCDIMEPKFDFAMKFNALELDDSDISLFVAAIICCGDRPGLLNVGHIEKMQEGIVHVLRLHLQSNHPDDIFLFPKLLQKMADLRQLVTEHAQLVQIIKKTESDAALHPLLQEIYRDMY
The experiment in a line: RXR heterodimer co-transfection assay (RXRα and PPARα, PPARα response element reporter).

As to “4-[(3-n-propyl-5,6,7,8-tetrahydro-5,5,8,8-tetramethyl-2-naphthyl)ethenyl]benzoic acid [Compound 102]”, the Kd (in general, the constant that tells how readily two partners part at equilibrium) at RXRα [1] is 0.282 µM; on RXRβ [2], 0.426 µM; at RXRγ [3], 0.683 µM. The IC50 (usually the concentration needed to halve the response being measured) at RXRα [4] amounted to 0.386 µM; at RXRβ [5], 0.659 µM; on RXRγ [6] it was 1.67 µM.
On to “4-[(3-propoxy-5,6,7,8-tetrahydro-5,5,8,8-tetramethyl-2-naphthyl)carbonyl]benzoic acid O-methyloxime [Compound 110]”, for which the values for the dissociation constant Kd on RXRα [1], at RXRβ [2] and on RXRγ [3] were 0.04 µM, 0.077 µM and 0.066 µM, respectively. Besides, the IC50 stood at 0.08 µM at RXRα [4], 0.217 µM on RXRβ [5] and 0.211 µM on RXRγ [6].
“4-[(3-propoxy-5,6,7,8-tetrahydro-5,5,8,8-tetramethyl-2-naphthyl)carbonyl]benzoic acid oxime [Compound 109]”: the Kd at RXRα [1] was found to be 0.037 µM; at RXRβ [2], 0.033 µM; at RXRγ [3], 0.047 µM. Moreover, the IC50 is 0.21 µM at RXRα [4], 0.193 µM at RXRβ [5] and 0.394 µM on RXRγ [6].
Regarding `CC(C)(Oc1ccc(Cl)cc1)C(=O)O` [Clofibric acid, clofibric acid, reference compound], it took 40 µM to reach a half-maximal effect on RXRα:PPARα heterodimer (EC50). Also, the Fold activation on RXRα:PPARα heterodimer (normalized luciferase values at 10−4M (clofibric acid) divided by values with vehicle) is reported as 6.5 fold.
For the compound `CCCc1cc2c(cc1C(=O)c1ccc(C(=O)O)cc1)C(C)(C)CCC2(C)C` [Compound 101, 4-[(3-n-propyl-5,6,7,8-tetrahydro-5,5,8,8-tetramethyl-2-naphthyl)carbonyl]benzoic acid], the melting point (usually the temperature of the solid-liquid transition) lay within 252 to 254 °C.
Take `Cc1cc2c(cc1C(=O)c1ccc(C(=O)NOCc3ccccc3)cc1)C(C)(C)CCC2(C)C` [Compound 105, 4-[(3,5,5,8,8-pentamethyl-5,6,7,8-tetrahydro-2-naphthyl)carbonyl]benzoic acid O-benzyloxime]: the melting point lay within 169 to 172 °C.
As to `CCCCCCONC(=O)c1ccc(C(=O)c2cc3c(cc2C)C(C)(C)CCC3(C)C)cc1` [Compound 106, 4-[(3,5,5,8,8-pentamethyl-5,6,7,8-tetrahydro-2-naphthyl)carbonyl]benzoic acid O-hexyloxime], the melting point was 91 to 95 °C.
Consider `CCOc1cc2c(cc1C=Cc1ccc(C(=O)O)cc1)C(C)(C)CCC2(C)C` [Compound 107, 4-[(3-ethoxy-5,6,7,8-tetrahydro-5,5,8,8-tetramethyl-2-naphthyl)ethenyl]benzoic acid], for which the melting point is 195 to 200 °C (dec.).
The same measure, in the same setting: then `CCCCOc1cc2c(cc1C(=O)c1ccc(C(=O)O)cc1)C(C)(C)CCC2(C)C` [Compound 111, 4-[(3-butyloxy-5,6,7,8-tetrahydro-5,5,8,8-tetramethyl-2-naphthyl)carbonyl]benzoic acid], with 207 to 210 °C; and `CCCCOc1cc2c(cc1C=Cc1ccc(C(=O)O)cc1)C(C)(C)CCC2(C)C` [Compound 112, 4-[(3-butyloxy-5,6,7,8-tetrahydro-5,5,8,8-tetramethyl-2-naphthyl)ethenyl]benzoic acid], with 194 to 196 °C; and `CCCCCCCOc1cc2c(cc1C(=O)c1ccc(C(=O)NO)cc1)C(C)(C)CCC2(C)C` [Compound 115, 4-[(3-heptyloxy-5,6,7,8-tetrahydro-5,5,8,8-tetramethyl-2-naphthyl)carbonyl]benzoic acid oxime], with 200 to 205 °C.
With `CCCCCCCOc1cc2c(cc1C=Cc1ccc(C(=O)O)cc1)C(C)(C)CCC2(C)C` [Compound 116, 4-[(3-heptyloxy-5,6,7,8-tetrahydro-5,5,8,8-tetramethyl-2-naphthyl)ethenyl]benzoic acid], the melting point was in the range of 153 to 155 °C.
On to `CC(C=CC=C(C)c1cc2c(cc1OCc1ccccc1)C(C)(C)CCC2(C)C)=CC(=O)O` [Compound 128, (2E, 4E, 6Z)-7-[3-benzyloxy-5,6,7,8-tetrahydro-5,5,8,8-tetramethyl-2-naphthalen-2-yl]-3-methylocta-2,4,6-trienoic acid], for which the Kd at RXRα [1] worked out at 0.009 µM; on RXRβ [2], 0.023 µM; on RXRγ [3], 0.027 µM. Besides, it took 0.2 µM to reach a half-maximal effect on RXRα:PPARα heterodimer (EC50). Further, the Fold activation on RXRα:PPARα heterodimer (normalized luciferase values at 10−5M divided by values with vehicle) was found to be 4 fold.
Regarding `CC1(C)CCC(C)(C)c2cc(C(=O)c3ccc(C(=O)NO)cc3)c(OCc3ccc(Br)cc3)cc21` [Compound 161, 4-[(3-(4-bromobenzyloxy)-5,6,7,8-tetrahydro-5,5,8,8-tetramethyl-2-naphthyl)carbonyl]benzoic acid oxime], the melting point was 221 to 223.5 °C.
As to `CC1(C)CCC(C)(C)c2cc(C3(c4ccc(C(=O)O)cc4)OCCO3)c(OCc3ccccc3)cc21` [Compound 164, 4-[2-(3-benzyloxy-5,6,7,8-tetrahydro-5,5,8,8-tetramethyl-2-naphthyl)-[1,3]dioxolan-2-yl]benzoic acid], the melting point is 222 to 228 °C (dec.).
Regarding `COc1ccc(COc2cc3c(cc2/C(C)=C/C=C/C(C)=C/C(=O)O)C(C)(C)CCC3(C)C)cc1` [Compound 174, (2E, 4E, 6E)-7-[3-(4-methoybenzyloxy)-5,6,7,8-tetrahydro-5,5,8,8-tetramethyl-2-naphthalen-2-yl]-3-methyl-octa-2,4,6-trienoic acid], the Kd at RXRα [1] came out at 0.005 µM; at RXRβ [2], 0.043 µM; on RXRγ [3], 0.046 µM.
For the compound `CCCOc1cc2c(cc1C(C)C/C=C/C(C)=C/C(=O)O)C(C)(C)CCC2(C)C` (centres unmarked) [Compound 175, (2E, 4E)-7-[3-propoxy-5,6,7,8-tetrahydro-5,5,8,8-tetramethyl-2-naphthalen-2-yl]-3-methyl-octa-2,4-dienoic acid], the Kd on RXRα [1] stood at 0.011 µM; at RXRβ [2], 0.021 µM; on RXRγ [3], 0.031 µM.

For the origin of these results see patent US6545049B1, “Dimer-selective RXR modulators and methods for their use” (Ligand Pharmaceuticals Incorporated, priority 1995, dated 2003).
